The compounds below were run on TGBC1TKB (assay: cells). Conditions: Homo sapiens, TGBC1TKB.
Assay type: functional, cell-based, Homo sapiens
Description: SANGER: Inhibition of human TGBC1TKB cell growth in a cell viability assay.
`CN(NC(=O)CC(=O)NN(C)C(=S)c1ccccc1)C(=S)c1ccccc1` [ELESCLOMOL] was tested, and the IC50 was 33.3 nM.

These compounds were tested on OCI-AML2 (assay: cells). Conditions: Homo sapiens, OCI-AML2.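 Also: growth inhibition of OCI-AML2 cells, read out with a cell viability assay.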
Assay type: functional, cell-based, Homo sapiens
Description: SANGER: Inhibition of human OCI-AML2 cell growth in a cell viability assay.
`CN(NC(=O)CC(=O)NN(C)C(=S)c1ccccc1)C(=S)c1ccccc1` [ELESCLOMOL] gave an IC50 of 136 nM.

What follows are compounds tested on PSN1 (assay: cells). Conditions: Homo sapiens, PSN1.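 Also: suppression of growth of human PSN1 cells, read out by a cell viability assay.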
Assay type: functional, cell-based, Homo sapiens
Description: SANGER: Inhibition of human PSN1 cell growth in a cell viability assay.
Compound `CN(NC(=O)CC(=O)NN(C)C(=S)c1ccccc1)C(=S)c1ccccc1` [ELESCLOMOL] has an IC50 of 3.84 nM.

These compounds were tested on NOS-1 (assay: cells). Conditions: Homo sapiens, NOS-1.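 Also: growth inhibition of the human NOS-1 cell line, read out with a cell viability assay.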
Assay type: functional, cell-based, Homo sapiens
Description: SANGER: Inhibition of human NOS-1 cell growth in a cell viability assay.
Compound `CN(NC(=O)CC(=O)NN(C)C(=S)c1ccccc1)C(=S)c1ccccc1` [ELESCLOMOL] has an IC50 of under 0.781 nM.

These compounds were tested on NCI-H526 (assay: cells). Conditions: Homo sapiens, NCI-H526.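 Also: growth inhibition of the human NCI-H526 cell line, measured by a cell viability assay.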
Assay type: functional, cell-based, Homo sapiens
Description: SANGER: Inhibition of human NCI-H526 cell growth in a cell viability assay.
`CN(NC(=O)CC(=O)NN(C)C(=S)c1ccccc1)C(=S)c1ccccc1` [ELESCLOMOL] was tested, and the IC50 was over 200 nM.

The compounds below were run on SNU1 (assay: cells). Conditions: Homo sapiens, SNU1.
Assay type: functional, cell-based, Homo sapiens
Description: SANGER: Inhibition of human NCI-SNU-1 cell growth in a cell viability assay.
`CN(NC(=O)CC(=O)NN(C)C(=S)c1ccccc1)C(=S)c1ccccc1` [ELESCLOMOL] was tested, and the IC50 was 4.86 nM.

What follows are compounds tested on BT-474 (assay: cells). Conditions: Homo sapiens, BT-474.
Assay type: functional, cell-based, Homo sapiens
Description: SANGER: Inhibition of human BT-474 cell growth in a cell viability assay.
Work on `CN(NC(=O)CC(=O)NN(C)C(=S)c1ccccc1)C(=S)c1ccccc1` [ELESCLOMOL] yielded an IC50 of 19.2 nM.

These compounds were tested on KM12 (assay: cells). Conditions: Homo sapiens, KM12.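 Also: KM12 cell growth inhibition, read out with a cell viability assay.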
Assay type: functional, cell-based, Homo sapiens
Description: SANGER: Inhibition of human KM12 cell growth in a cell viability assay.
Compound `CN(NC(=O)CC(=O)NN(C)C(=S)c1ccccc1)C(=S)c1ccccc1` [ELESCLOMOL] has an IC50 of over 200 nM.

The compounds below were run on EW-3 (assay: cells). Conditions: Homo sapiens, EW-3.
Assay type: functional, cell-based, Homo sapiens
Description: SANGER: Inhibition of human EW-3 cell growth in a cell viability assay.
Work on `CN(NC(=O)CC(=O)NN(C)C(=S)c1ccccc1)C(=S)c1ccccc1` [ELESCLOMOL] yielded an IC50 of 39.9 nM.

These compounds were tested on LC-2-ad (assay: cells). Conditions: Homo sapiens, LC-2-ad.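 Also: growth inhibition of human LC-2-ad cells, read out with a cell viability assay.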
Assay type: functional, cell-based, Homo sapiens
Description: SANGER: Inhibition of human LC-2-ad cell growth in a cell viability assay.
In the case of `CN(NC(=O)CC(=O)NN(C)C(=S)c1ccccc1)C(=S)c1ccccc1` [ELESCLOMOL], the IC50 is reported as 27.8 nM.

These compounds were tested on NCI-H446 (assay: cells). Conditions: Homo sapiens, NCI-H446.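 Also: growth inhibition of NCI-H446 cells determined by a cell viability assay.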
Assay type: functional, cell-based, Homo sapiens
Description: SANGER: Inhibition of human NCI-H446 cell growth in a cell viability assay.
With `CN(NC(=O)CC(=O)NN(C)C(=S)c1ccccc1)C(=S)c1ccccc1` [ELESCLOMOL] the IC50 was 90.1 nM.

The compounds below were run on CGTH-W-1 (assay: cells). Conditions: Homo sapiens, CGTH-W-1.
Assay type: functional, cell-based, Homo sapiens
Description: SANGER: Inhibition of human CGTH-W-1 cell growth in a cell viability assay.
`CN(NC(=O)CC(=O)NN(C)C(=S)c1ccccc1)C(=S)c1ccccc1` [ELESCLOMOL] gave an IC50 of 11 nM.

Each compound was assayed on HT (assay: cells). Conditions: Homo sapiens, HT.
Assay type: functional, cell-based, Homo sapiens
Description: SANGER: Inhibition of human HT cell growth in a cell viability assay.
With `CN(NC(=O)CC(=O)NN(C)C(=S)c1ccccc1)C(=S)c1ccccc1` [ELESCLOMOL] the IC50 was over 200 nM.

The compounds below were run on U-266 (assay: cells). Conditions: Homo sapiens, U-266.
Assay type: functional, cell-based, Homo sapiens
Description: SANGER: Inhibition of human U-266 cell growth in a cell viability assay.
Compound `CN(NC(=O)CC(=O)NN(C)C(=S)c1ccccc1)C(=S)c1ccccc1` [ELESCLOMOL] has an IC50 of 15.8 nM.

What follows are compounds tested on KNS-81-FD (assay: cells). Conditions: Homo sapiens, KNS-81-FD.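 Also: growth inhibition of KNS-81-FD cells, read out with a cell viability assay.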
Assay type: functional, cell-based, Homo sapiens
Description: SANGER: Inhibition of human KNS-81-FD cell growth in a cell viability assay.
`CN(NC(=O)CC(=O)NN(C)C(=S)c1ccccc1)C(=S)c1ccccc1` [ELESCLOMOL] was tested, and the IC50 was 17.5 nM.

Each compound was assayed on TE-11 (assay: cells). Conditions: Homo sapiens.
Assay type: functional, cell-based
Description: SANGER: Inhibition of human TE-11 cell growth in a cell viability assay.
Work on `CN(NC(=O)CC(=O)NN(C)C(=S)c1ccccc1)C(=S)c1ccccc1` [ELESCLOMOL] yielded an IC50 of 46.1 nM.

The compounds below were run on NCI-H1092 (assay: cells). Conditions: Homo sapiens, NCI-H1092.
Assay type: functional, cell-based, Homo sapiens
Description: SANGER: Inhibition of human NCI-H1092 cell growth in a cell viability assay.
With `CN(NC(=O)CC(=O)NN(C)C(=S)c1ccccc1)C(=S)c1ccccc1` [ELESCLOMOL] the IC50 was 90.1 nM.

The compounds below were run on COLO-824 (assay: cells). Conditions: Homo sapiens, COLO-824.
Assay type: functional, cell-based, Homo sapiens
Description: SANGER: Inhibition of human COLO-824 cell growth in a cell viability assay.
`CN(NC(=O)CC(=O)NN(C)C(=S)c1ccccc1)C(=S)c1ccccc1` [ELESCLOMOL] gave an IC50 of 71.8 nM.

What follows are compounds tested on KU812 cell line (assay: cells). Conditions: Homo sapiens, KU812.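 Also: growth inhibition of KU812 cells, read out with a cell viability assay.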
Assay type: functional, cell-based, Homo sapiens
Description: SANGER: Inhibition of human KU812 cell growth in a cell viability assay.
`CN(NC(=O)CC(=O)NN(C)C(=S)c1ccccc1)C(=S)c1ccccc1` [ELESCLOMOL] gave an IC50 of over 200 nM.

What follows are compounds tested on LU-134-A (assay: cells). Conditions: Homo sapiens, LU-134-A.
Assay type: functional, cell-based, Homo sapiens
Description: SANGER: Inhibition of human LU-134-A cell growth in a cell viability assay.
Work on `CN(NC(=O)CC(=O)NN(C)C(=S)c1ccccc1)C(=S)c1ccccc1` [ELESCLOMOL] yielded an IC50 of over 200 nM.

Each compound was assayed on ES1 (assay: cells). Conditions: Homo sapiens, ES1.
Assay type: functional, cell-based, Homo sapiens
Description: SANGER: Inhibition of human ES1 cell growth in a cell viability assay.
`CN(NC(=O)CC(=O)NN(C)C(=S)c1ccccc1)C(=S)c1ccccc1` [ELESCLOMOL] gave an IC50 of 0.749 nM.

Each compound was assayed on NCI-H1581 (assay: cells). Conditions: Homo sapiens, NCI-H1581.
Assay type: functional, cell-based, Homo sapiens
Description: SANGER: Inhibition of human NCI-H1581 cell growth in a cell viability assay.
`CN(NC(=O)CC(=O)NN(C)C(=S)c1ccccc1)C(=S)c1ccccc1` [ELESCLOMOL] was tested, and the IC50 was 24.6 nM.

What follows are compounds tested on NCI-H1770 (assay: cells). Conditions: Homo sapiens, NCI-H1770.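 Also: growth inhibition of NCI-H1770 cells determined with a viability readout.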
Assay type: functional, cell-based, Homo sapiens
Description: SANGER: Inhibition of human NCI-H1770 cell growth in a cell viability assay.
Compound `CN(NC(=O)CC(=O)NN(C)C(=S)c1ccccc1)C(=S)c1ccccc1` [ELESCLOMOL] has an IC50 of over 200 nM.

The compounds below were run on JVM-3 (assay: cells). Conditions: Homo sapiens, JVM-3.
Assay type: functional, cell-based, Homo sapiens
Description: SANGER: Inhibition of human JVM-3 cell growth in a cell viability assay.
Compound `CN(NC(=O)CC(=O)NN(C)C(=S)c1ccccc1)C(=S)c1ccccc1` [ELESCLOMOL] has an IC50 of over 200 nM.

What follows are compounds tested on ES3 (assay: cells). Conditions: Homo sapiens, ES3.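 Also: growth inhibition of ES3 cells, read out with a cell viability assay.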
Assay type: functional, cell-based, Homo sapiens
Description: SANGER: Inhibition of human ES3 cell growth in a cell viability assay.
For `CN(NC(=O)CC(=O)NN(C)C(=S)c1ccccc1)C(=S)c1ccccc1` [ELESCLOMOL], the IC50 was 5.79 nM.

The compounds below were run on TE-5 (assay: cells). Conditions: Homo sapiens, TE-5.
Assay type: functional, cell-based, Homo sapiens
Description: SANGER: Inhibition of human TE-5 cell growth in a cell viability assay.
`CN(NC(=O)CC(=O)NN(C)C(=S)c1ccccc1)C(=S)c1ccccc1` [ELESCLOMOL] showed an IC50 of 15 nM.

What follows are compounds tested on EW-1 (assay: cells). Conditions: Homo sapiens, EW-1.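 Also: growth inhibition of the human EW-1 cell line, read out by a cell viability assay.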
Assay type: functional, cell-based, Homo sapiens
Description: SANGER: Inhibition of human EW-1 cell growth in a cell viability assay.
In the case of `CN(NC(=O)CC(=O)NN(C)C(=S)c1ccccc1)C(=S)c1ccccc1` [ELESCLOMOL], the IC50 is reported as 5.24 nM.

The compounds below were run on HCE-4 (assay: cells). Conditions: Homo sapiens.
Assay type: functional, cell-based
Description: SANGER: Inhibition of human HCE-4 cell growth in a cell viability assay.
With `CN(NC(=O)CC(=O)NN(C)C(=S)c1ccccc1)C(=S)c1ccccc1` [ELESCLOMOL] the IC50 was 59.1 nM.

These compounds were tested on UACC-257 (assay: cells). Conditions: Homo sapiens, UACC-257.
Assay type: functional, cell-based, Homo sapiens
Description: SANGER: Inhibition of human UACC-257 cell growth in a cell viability assay.
Work on `CN(NC(=O)CC(=O)NN(C)C(=S)c1ccccc1)C(=S)c1ccccc1` [ELESCLOMOL] yielded an IC50 of 22 nM.

These compounds were tested on BB65-RCC (assay: cells). Conditions: Homo sapiens, BB65-RCC.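 Also: growth inhibition of the cell line, measured with a cell viability assay.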
Assay type: functional, cell-based, Homo sapiens
Description: SANGER: Inhibition of human BB65-RCC cell growth in a cell viability assay.
`CN(NC(=O)CC(=O)NN(C)C(=S)c1ccccc1)C(=S)c1ccccc1` [ELESCLOMOL] was tested, and the IC50 was 24.2 nM.

These compounds were tested on RKO (assay: cells). Conditions: Homo sapiens, RKO.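 Also: growth inhibition of human RKO cells, read out with a cell viability assay.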
Assay type: functional, cell-based, Homo sapiens
Description: SANGER: Inhibition of human RKO cell growth in a cell viability assay.
In the case of `CN(NC(=O)CC(=O)NN(C)C(=S)c1ccccc1)C(=S)c1ccccc1` [ELESCLOMOL], the IC50 is reported as 21 nM.

What follows are compounds tested on KP-N-YS (assay: cells). Conditions: Homo sapiens, KP-N-YS.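 Also: cell viability assay measuring inhibition of cell line growth.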
Assay type: functional, cell-based, Homo sapiens
Description: SANGER: Inhibition of human KP-N-YS cell growth in a cell viability assay.
In the case of `CN(NC(=O)CC(=O)NN(C)C(=S)c1ccccc1)C(=S)c1ccccc1` [ELESCLOMOL], the IC50 is reported as 79.9 nM.

These compounds were tested on MN-60 (assay: cells). Conditions: Homo sapiens, MN-60.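 Also: growth inhibition of the MN-60 cell line, determined with a cell viability assay.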
Assay type: functional, cell-based, Homo sapiens
Description: SANGER: Inhibition of human MN-60 cell growth in a cell viability assay.
`CN(NC(=O)CC(=O)NN(C)C(=S)c1ccccc1)C(=S)c1ccccc1` [ELESCLOMOL] was tested, and the IC50 was 14.3 nM.

These compounds were tested on OMC-1 (assay: cells). Conditions: Homo sapiens, OMC-1.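 Also: growth inhibition of the OMC-1 cell line, measured by a cell viability assay.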
Assay type: functional, cell-based, Homo sapiens
Description: SANGER: Inhibition of human OMC-1 cell growth in a cell viability assay.
Work on `CN(NC(=O)CC(=O)NN(C)C(=S)c1ccccc1)C(=S)c1ccccc1` [ELESCLOMOL] yielded an IC50 of 77.1 nM.

These compounds were tested on KG-1 (assay: cells). Conditions: Homo sapiens, KG-1.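 Also: growth inhibition of KG-1 cells, read out by a cell viability assay.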
Assay type: functional, cell-based, Homo sapiens
Description: SANGER: Inhibition of human KG-1 cell growth in a cell viability assay.
In the case of `CN(NC(=O)CC(=O)NN(C)C(=S)c1ccccc1)C(=S)c1ccccc1` [ELESCLOMOL], the IC50 is reported as 39.7 nM.

Each compound was assayed on D-247MG (assay: cells). Conditions: Homo sapiens.
Assay type: functional, cell-based
Description: SANGER: Inhibition of human D-247MG cell growth in a cell viability assay.
For `CN(NC(=O)CC(=O)NN(C)C(=S)c1ccccc1)C(=S)c1ccccc1` [ELESCLOMOL], the IC50 was 24.7 nM.

These compounds were tested on J-RT3-T3-5 (assay: cells). Conditions: Homo sapiens, J-RT3-T3-5.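 Also: cell viability assay measuring growth inhibition of human J-RT3-T3-5 cells.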
Assay type: functional, cell-based, Homo sapiens
Description: SANGER: Inhibition of human J-RT3-T3-5 cell growth in a cell viability assay.
Work on `CN(NC(=O)CC(=O)NN(C)C(=S)c1ccccc1)C(=S)c1ccccc1` [ELESCLOMOL] yielded an IC50 of 14.4 nM.

These compounds were tested on MLMA (assay: cells). Conditions: Homo sapiens, MLMA.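 Also: growth inhibition of MLMA cells (human), determined through a cell viability readout.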
Assay type: functional, cell-based, Homo sapiens
Description: SANGER: Inhibition of human MLMA cell growth in a cell viability assay.
`CN(NC(=O)CC(=O)NN(C)C(=S)c1ccccc1)C(=S)c1ccccc1` [ELESCLOMOL] showed an IC50 of 13.6 nM.

These compounds were tested on KARPAS-299 (assay: cells). Conditions: Homo sapiens, KARPAS-299.
Assay type: functional, cell-based, Homo sapiens
Description: SANGER: Inhibition of human KARPAS-299 cell growth in a cell viability assay.
For `CN(NC(=O)CC(=O)NN(C)C(=S)c1ccccc1)C(=S)c1ccccc1` [ELESCLOMOL], the IC50 was 37.4 nM.

What follows are compounds tested on MZ1-PC (assay: cells). Conditions: Homo sapiens, MZ1-PC.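 Also: cell viability assay measuring growth inhibition of human MZ1-PC cells.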
Assay type: functional, cell-based, Homo sapiens
Description: SANGER: Inhibition of human MZ1-PC cell growth in a cell viability assay.
For `CN(NC(=O)CC(=O)NN(C)C(=S)c1ccccc1)C(=S)c1ccccc1` [ELESCLOMOL], the IC50 was 144 nM.

The compounds below were run on KY821 (assay: cells). Conditions: Homo sapiens, KY821.
Assay type: functional, cell-based, Homo sapiens
Description: SANGER: Inhibition of human KY821 cell growth in a cell viability assay.
`CN(NC(=O)CC(=O)NN(C)C(=S)c1ccccc1)C(=S)c1ccccc1` [ELESCLOMOL] showed an IC50 of over 200 nM.

Each compound was assayed on KALS-1 (assay: cells). Conditions: Homo sapiens, KALS-1; read-out: IC50.
Assay type: functional, cell-based, Homo sapiens
Description: SANGER: Inhibition of human KALS-1 cell growth in a cell viability assay.
`CN(NC(=O)CC(=O)NN(C)C(=S)c1ccccc1)C(=S)c1ccccc1` [ELESCLOMOL] gave an IC50 of 96.3 nM.

What follows are compounds tested on SK-MEL-2 (assay: cells). Conditions: Homo sapiens, SK-MEL-2.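 Also: growth inhibition of human SK-MEL-2 cells measured with a cell viability assay.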
Assay type: functional, cell-based, Homo sapiens
Description: SANGER: Inhibition of human SK-MEL-2 cell growth in a cell viability assay.
With `CN(NC(=O)CC(=O)NN(C)C(=S)c1ccccc1)C(=S)c1ccccc1` [ELESCLOMOL] the IC50 was 73.2 nM.

Each compound was assayed on SW 962 (assay: cells). Conditions: Homo sapiens, SW 962.
Assay type: functional, cell-based, Homo sapiens
Description: SANGER: Inhibition of human SW962 cell growth in a cell viability assay.
`CN(NC(=O)CC(=O)NN(C)C(=S)c1ccccc1)C(=S)c1ccccc1` [ELESCLOMOL] gave an IC50 of 111 nM.

These compounds were tested on RS4-11 (assay: cells). Conditions: Homo sapiens, RS4-11.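 Also: growth inhibition of RS4-11 cells, read out by a cell viability assay.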
Assay type: functional, cell-based, Homo sapiens
Description: SANGER: Inhibition of human RS4-11 cell growth in a cell viability assay.
`CN(NC(=O)CC(=O)NN(C)C(=S)c1ccccc1)C(=S)c1ccccc1` [ELESCLOMOL] was tested, and the IC50 was over 200 nM.

These compounds were tested on LS-411N (assay: cells). Conditions: Homo sapiens, LS-411N.
Assay type: functional, cell-based, Homo sapiens
For `CN(NC(=O)CC(=O)NN(C)C(=S)c1ccccc1)C(=S)c1ccccc1` [ELESCLOMOL], the IC50 was 102 nM.

The compounds below were run on D-263MG (assay: cells). Conditions: Homo sapiens, D-263MG.
Assay type: functional, cell-based, Homo sapiens
Description: SANGER: Inhibition of human D-263MG cell growth in a cell viability assay.
`CN(NC(=O)CC(=O)NN(C)C(=S)c1ccccc1)C(=S)c1ccccc1` [ELESCLOMOL] gave an IC50 of over 200 nM.

What follows are compounds tested on DSH1 (assay: cells). Conditions: Homo sapiens.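 Also: growth inhibition of human DSH1 cells, measured with a cell viability readout.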
Assay type: functional, cell-based
Description: SANGER: Inhibition of human DSH1 cell growth in a cell viability assay.
For `CN(NC(=O)CC(=O)NN(C)C(=S)c1ccccc1)C(=S)c1ccccc1` [ELESCLOMOL], the IC50 was 23.3 nM.

Each compound was assayed on NCI-H1648 (assay: cells). Conditions: Homo sapiens, NCI-H1648.
Assay type: functional, cell-based, Homo sapiens
Description: SANGER: Inhibition of human NCI-H1648 cell growth in a cell viability assay.
With `CN(NC(=O)CC(=O)NN(C)C(=S)c1ccccc1)C(=S)c1ccccc1` [ELESCLOMOL] the IC50 was over 200 nM.

From ChEMBL document CHEMBL1201861, “Genomics of Drug Sensitity in Cancer screening data, Wellcome Trust Sanger Institute”
